Entries after “also recorded” stand apart in the source; their conditions may differ.
How the values were obtained:
[1] = 6-TG selection and 6-TG challenge of gRNA modified CEM cells (cell viability); type: cell-based; conditions: human, wild type (unmodified) CEM T cell leukemia cells; wild type CEM, 6-TG at 40 uM
Experimental: (§1) Cells confirmed to be transfected with the gRNA via the use of the tracr RNA (24 hours post electroporation) were purified using fluorescence activated cells sorting (FACS) prior to culture in 10 μM 6-TG for 1 week replenished with fresh 6-TG every 48-72 hours.
(§2) After 10 days in the presence of 10 uM 6-TG, replenished with fresh 6-TG every 48-72 hours, each cell line was challenged with increasing concentrations of 6-thioguanine (6-TG) and cell viability was compared to wild type (unmodified) CEM cells (see FIG. 40B).

CEM cells = assay: Negative selection with MTX or MPA, transduced or transfected CEM cells; type: cell-based; conditions: 1 μM or 10 μM of MPA, day 0 to day 14
Experimental: Transduced or transfected CEM cells (such as those from Example 1) were cultured with or without MTX from day 0 to day 14. The medium was refreshed every 3 to 4 days. GFP was analyzed on flow machine and InDel % was analyzed by T7E1 assay.

Jurkat cells [2] = assay: HPRT knockout Jurkat cells, resistance to 6-TG (luminescence, ATP detection); type: cell-based; conditions: 6-TG tested up to 10 uM, vs wild type
Experimental: (§3) Jurkat cells were electroporated with a ribonucleoprotein (RNP) complex containing guide RNA (gRNA; GS-4; designated IDT-4) together with the Cas9 and tracrRNA. Cells which were confirmed to be transfected with the gRNA via tracr RNA were purified using fluorescence activated cells sorting (FACS) and subsequently cultured for 72 hours. Increasing concentrations of 6-thioguanine (6-TG) were then administered to the transduced cultured cells to assess resistance. Wild type (unmodified) Jurkat cells were used as a control.
Luminescence (ATP detection) was used to assess cell viability.

HPRT protein [3] = assay: Western blot of HPRT protein in Jurkat cells; type: cell-based, human; conditions: vs unmodified (WT)
Experimental: as §3
Unmodified (WT) and IDT-4 modified Jurkat cells were also analyzed for HPRT protein using Western blot (see FIG. 25). […] Actin protein detection (bottom panel) was used as a protein loading control.

Jurkat cells [4] = assay: HPRT knockout Jurkat cells, MTX dose response; type: cell-based; conditions: MTX 0.00625 and 0.0125 μM, cultured for 5 days
Experimental: Jurkat cells (unmodified; WT) were cultured with increasing concentrations of methotrexate (MTX) to determine the MTX dosage window required to kill WT cells (see FIG. 28). A dose range of between 0.00625 and 0.025 μM MTX was selected for subsequent assessment of HPRT Knockout (IDT-4 modified) Jurkat cells.
Dose response of HPRT Knockout (IDT-4 modified) Jurkat cells to MTX was compared to unmodified Jurkat cells (WT) to determine sensitivity to MTX (see FIG. 29).

HPRT protein [5] = assay: Western blot of HPRT protein in gRNA modified CEM cells; type: cell-based, human
Experimental: (§4) CEM T cell leukemia cells were electroporated (1600V, 10 ms pulse width, 3 pulses by using the Neon Transfection system) with ribonucleoprotein (RNP) complexes containing guide RNA (see Example 21) designed in-house and obtained from Integrated DNA Technologies (IDT), together with Cas9 and tracrRNA. Cells confirmed to be transfected with the gRNA via the use of the tracr RNA (24 hours post electroporation) were purified using fluorescence activated cells sorting (FACS) prior to culture for a further 72 hours, followed by assessment of cell survival when challenged with increasing concentrations of 6-thioguanine (6-TG) compared to wild type (unmodified) CEM cells.
Unmodified and modified CEM cells were also used for isolation of protein and detection of the HPRT protein using Western blot (FIG. 39, top panel). […] Actin protein detection (FIG. 39, bottom panel) was used as a protein loading control.
as §4, with “(gRNA; legend)” for “(see Example 21)”, “10 days in the presence” for “a further 72 hours, followed by assessment”, “10 uM 6-TG, replenished” for “cell survival when challenged”, “fresh 6-TG every 48-72 hours.” for “increasing concentrations of 6-thioguanine (6-TG) compared to wild type (unmodified) CEM cells.”
Following the selection period, protein was extracted from each cell and used for western blot-based detection of the HPRT protein. Detection of beta-actin was used as a protein loading control (Actin Antibody (ACTBD11B7): sc-81178. Santa Cruz).

HPRT1 gene [6] = assay: ICE scoring (indel, knockout score) of gRNA editing in primary T cells; type: cell-based; conditions: primary human T cells
From the text: (§5) Indel Percentage—The editing efficiency (percentage of the pool with non-wild type sequence) as determined by comparing the edited trace to the control trace. In the ICE algorithm, potential editing outcomes are proposed and fitted to the observed data using linear regression.
(§6) Knockout Score—Represents the proportion of cells that have either a frameshift or 21+bp indel. This score is a useful measure for those who are interested in understanding how many of the contributing indels are likely to result in a functional Knockout (KO) of the targeted gene.
FIG. 44 illustrates a method of modifying primary T-cells in accordance with one embodiment of the present disclosure. FIGS. 45A-45C illustrate 6-TG dose responses seven days following the modification of the primary T-cells in accordance with the modification methods described herein. In particular, FIGS. 45A and 45B illustrate the targeting of Exon 3 (guide RNA 13) and Exon 8 (guide RNA 21). The references “#9” and “#10” denote T-cell number and UT control (electroporated without RNP). […]
(§7) Peripheral blood mononuclear cells (PBMC) were isolated from Australian Red Cross Blood donor samples (n=2) via density centrifugation. […] By day 7, the original mixed PBMC population was determined to be primarily CD3+ T cells (flow cytometry; data not shown).

primary human T cells [7] = assay: 6-TG resistance of gRNA modified primary human T cells (viability); type: cell-based; conditions: donors #9 and #10, 1 uM 6-TG, day 8 and day 13, vs unmodified
From the text: FIG. 44 illustrates a method of modifying primary T-cells in accordance with one embodiment of the present disclosure. FIGS. 45A-45C illustrate 6-TG dose responses seven days following the modification of the primary T-cells in accordance with the modification methods described herein. In particular, FIGS. 45A and 45B illustrate the targeting of Exon 3 (guide RNA 13) and Exon 8 (guide RNA 21). The references “#9” and “#10” denote T-cell number and UT control (electroporated without RNP). FIG. 45C illustrates unmodified cells from donor #9 and donor #10 tested with increasing concentrations of 6-TG (day 4). It was observed that the […] primary T-cells were very sensitive to low doses of 6-TG. ICE Scores are shown below.
as §7
The cells were then cultured for about 7 and about 12 days in the presence of 1 uM 6-TG, with 6-TG replenished every about 2 to about 3 days. At each of these time points, the cells were assessed for the proportion of viable cells compared to untreated (UT) controls.

primary human T cells [8] = assay: MTX dose response in 6-TG selected primary human T cells; type: cell-based; conditions: primary human T cells after 12 days 1 μM 6-TG, MTX dose range 2 days, thymidine 16 μM
Experimental: Primary human T cells modified using guide RNAs targeting the HPRT1 gene and subsequently placed under selection pressure for 12 days with 1 μM 6-TG, with 6-TG replenished every 2 to 3 days, were subjected to a dose range of MTX in the presence of thymidine 16 μM for 2 days and assessed for cell viability.

HPRT1 gene [9] = assay: ICE scoring (indel, knockout score) of gRNA editing in CEM cells; type: cell-based, human
From the text: The top candidate guide RNAs from Example 21 were screen in Jurkat cell lines (n=1) and validated in CEM cell lines (n=2). For instance, Jurkat cells were electroporated with a ribonucleoprotein (RNP) complex containing guide RNA (e.g. an RNP including a guide RNA having any one of SEQ ID NOS: 40-49) together with the Cas9 and tracrRNA. The methodology and analysis was the same for both Jurkat cell lines and CEM cell lines (see also, FIG. 37). Following electroporation, cell viability was measured at different concentrations of 6-TG (see FIG. 36).
as §5, §6, §4

[10] = system: CEM T cell leukemia cells; assay: 6-TG selection and 6-TG challenge of gRNA modified CEM cells (cell viability); type: cell-based; conditions: CEM, 10 μM 6-TG for 1 week, vs wild-type
Experimental: as §1, §2

[11] = after 10 days of 6-TG selection (10 uM)

Nc1nc2nc[nH]c2c(=S)[nH]1 [6-TG, 6-thioguanine, reference compound]
viability at 40 µM [1]: ~10%

COc1c(C)c2c(c(O)c1C/C=C(\C)CCC(=O)O)C(=O)OC2 [MPA, Mycophenolic acid]
HPRT knockout population of CEM cells (CEM cells): eliminated at a faster pace | GFP population of transduced (HPRT knockdown) cells (CEM cells; CEM cells): decreased

IDT-4: lead HPRT knockout guide RNA GGTTATGACCTTGATTTATT (listed as DNA, chemistry not given here)
cell viability with increasing doses of 6-TG (Jurkat cells [2]): resistance to increasing doses of 6-TG | HPRT protein level (Western blot) (HPRT protein [3]): undetectable levels of HPRT | sensitivity to MTX compared to wild type cells (Jurkat cells [4]): increased sensitivity to MTX

gRNA 12: sgRNA guide and PAM GCCCCCCTTGAGCACACAGAGGG, HPRT 1 target Exon 4 (listed as DNA, chemistry not given here)
HPRT protein (Western blot) (HPRT protein [5]; 72 hours post-electroporation, no 6-TG selection, listed as guide 12): undetectable levels of HPRT; also recorded: non-detectable | HPRT protein (Western blot) (HPRT protein [5]; [11]): remained undetectable

gRNA 13: sgRNA guide and PAM AGCCCCCCTTGAGCACACAGAGG, HPRT 1 target Exon 3 (listed as DNA, chemistry not given here)
knockout efficiency (ICE scoring) (HPRT1 gene [6]): about 43% | HPRT protein (Western blot) (HPRT protein [5]; 72 hours post-electroporation, no 6-TG selection, listed as guide 13): undetectable levels of HPRT; also recorded: non-detectable | HPRT protein (Western blot) (HPRT protein [5]; [11]): remained undetectable | proportion of viable cells under 6-TG (primary human T cells [7]): increased viability | sensitivity to MTX compared to wild-type non-modified cells (UT) (primary human T cells [8]): increased sensitivity to MTX

gRNA 15: sgRNA guide and PAM GATGTGATGAAGGAGATGGGAGG, HPRT 1 target Exon 3 (listed as DNA, chemistry not given here)
editing (ICE scoring), in words (HPRT1 gene [9]): efficient editing | HPRT protein (Western blot) (HPRT protein [5]; [11]): limited to no detectable levels of HPRT | cell viability under 6-TG selection [10]: more variable viability

gRNA 17: sgRNA guide and PAM GTAGCCCTCTGTGTGCTCAAGGG, HPRT 1 target Exon 3 (listed as DNA, chemistry not given here)
HPRT protein (Western blot) (HPRT protein [5]; 72 hours post-electroporation, no 6-TG selection, listed as guide 17): undetectable levels of HPRT; also recorded: non-detectable | HPRT protein (Western blot) (HPRT protein [5]; [11]): remained undetectable

gRNA 18: sgRNA guide and PAM TTATGCTGAGGATTTGGAAAGGG, HPRT 1 target Exon 2 (listed as DNA, chemistry not given here)
editing (ICE scoring), in words (HPRT1 gene [9]): efficient editing | HPRT protein (Western blot) (HPRT protein [5]; 72 hours post-electroporation, no 6-TG selection, listed as guide 18): reduced compared to wildtype; also recorded: detectable levels of HPRT protein | HPRT protein (Western blot) (HPRT protein [5]; [11]): limited to no detectable levels of HPRT | cell viability under 6-TG selection [10]: more variable viability

gRNA 19: sgRNA guide and PAM GTGCTTTGATGTAATCCAGCAGG, HPRT 1 target Exon 3 (listed as DNA, chemistry not given here)
editing (ICE scoring), in words (HPRT1 gene [9]): zero editing | HPRT protein (Western blot) (HPRT protein [5]; 72 hours post-electroporation, no 6-TG selection, listed as guide 19): reduced compared to wildtype; also recorded: detectable levels of HPRT protein | HPRT protein (Western blot) (HPRT protein [5]; [11]): limited to no detectable levels of HPRT | cell viability under 6-TG selection [10]: more variable viability

gRNA 22: sgRNA guide and PAM GAAGTATTCATTATAGTCAAGGG, HPRT 1 target Exon 8 (listed as DNA, chemistry not given here)
HPRT protein (Western blot) (HPRT protein [5]; 72 hours post-electroporation, no 6-TG selection, listed as guide 22): undetectable levels of HPRT; also recorded: non-detectable | HPRT protein (Western blot) (HPRT protein [5]; [11]): remained undetectable

Source: patent US20230355674A1, “DONOR T-CELLS WITH KILL SWITCH” (CSL Behring LLC, priority 2020, published 2023)
